Experimental data as given in PubChem BioAssay (NCI).
“And” between values parts separate entries of the source, which are not always exact repeats. Equal entries are not always repeated.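 Where inhibition never reached the appropriate level, the endpoint shown equals the highest concentration tested. Otherwise, values were interpolated linearly from a five-concentration, 48-hour dose response in 96-well plates. GI50: concentration for 50% inhibition of growth. TGI denotes the concentration required for complete inhibition of growth.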

What was measured:
Assay in all cases: DTP human tumour cell line panel, 48 h
SF-268 CNS = system: SF-268 CNS
HOP-92 NSCLC = system: HOP-92 NSCLC
HCT-116 colon = system: HCT-116 colon
HCC-2998 colon = system: HCC-2998 colon
MCF7 breast = system: MCF7 breast
CAKI-1 renal = system: CAKI-1 renal
T-47D breast = system: T-47D breast
BT-549 breast = system: BT-549 breast

SMILES	TGI (SF-268 CNS)	TGI (HOP-92 NSCLC)	TGI (HCT-116 colon)	TGI (HCC-2998 colon)	TGI (MCF7 breast)	TGI (CAKI-1 renal)	TGI (T-47D breast)	GI50 (SF-268 CNS)	GI50 (HOP-92 NSCLC)	GI50 (HCT-116 colon)	GI50 (HCC-2998 colon)	GI50 (MCF7 breast)	GI50 (CAKI-1 renal)	GI50 (T-47D breast)	GI50 (BT-549 breast)	TGI (BT-549 breast)
CC1(C)N=C(N)N=C(N)N1c1ccc(CCCCCCc2ccc(S(=O)(=O)F)cc2)cc1	31.3 µM	3.15 µM	15.3 µM	16 µM	> 32.3 µM	44.3 µM	52 µM									
CN1CCC(C(=O)Nc2n[nH]c3nnc(-c4ccccc4)cc23)CC1	> 25 µM	> 25 µM	> 25 µM	> 25 µM	> 25 µM	> 25 µM	> 25 µM	> 25 µM	11.3 µM	> 23.6 µM	> 25 µM	10.2 µM	> 25 µM	> 25 µM	> 25 µM	> 25 µM
Cc1nc2sc(C(=O)Nc3cccc(Cl)c3)c(N)c2cc1C(O)c1ccccc1 (stereo not given)	28.3 µM	31.3 µM	> 100 µM	10.5 µM	16.9 µM	17 µM	33 µM	2.66 µM	10.4 µM	0.426 µM	1.98 µM	0.373 µM	0.789 µM	0.997 µM	6.13 µM	35.6 µM
O=C([CH-]C(=O)c1ccccc1)c1ccccc1.[CH2-]C.[CH2-]C.[Tl+3]	> 100 µM	> 72.8 µM	34.2 µM	> 100 µM	> 100 µM	> 96.3 µM	> 100 µM	18.4 µM	21.6 µM	9.72 µM	28.7 µM	7.73 µM	27.2 µM	17 µM	26.9 µM	> 100 µM
Nc1nc2c([nH]1)c1[nH]c3ccccc3c1c1[nH]c3ccccc3c21	32.6 µM	22.2 µM	18 µM	5.75 µM	21.1 µM	29.5 µM		16.2 µM	9.12 µM	5.24 µM	2.26 µM	4.47 µM	16 µM		12.1 µM	25.5 µM
COC(=O)c1sc(=S)c2sc(C(=O)OC)c(C(=O)OC)c2c1C(=O)OC	> 100 µM	> 100 µM	> 100 µM	76.1 µM	> 100 µM	> 100 µM	> 100 µM	58.8 µM	24.3 µM	45 µM	20.5 µM	40 µM	58.1 µM	77.7 µM	46.8 µM	> 100 µM
CC(=O)OCCc1cc2ccccc2oc1=O	> 100 µM	> 100 µM	> 100 µM	> 100 µM	> 100 µM	> 100 µM	> 100 µM									> 100 µM
CC(C)OC(=O)c1cc(NC(=S)OC(C)C)ccc1Cl	> 59.6 µM	46.4 µM	> 54.6 µM	> 57.5 µM	> 53 µM	35.3 µM	> 57.6 µM									33.5 µM
CC(C)(C)c1cnc(CSc2cnc(NC(=O)C3CCNCC3)s2)o1	2.48 µM and > 3.39 µM	0.544 µM and 0.657 µM	> 100 µM	3.79 µM and 1.67 µM	> 53.3 µM	32.7 µM and > 10 µM	0.847 µM and > 4.35 µM	0.185 µM and 0.281 µM	0.114 µM and 0.17 µM	0.102 µM and 0.0797 µM	0.27 µM and 0.243 µM	0.0522 µM and 0.0505 µM	3.89 µM and > 3 µM	0.251 µM and 0.225 µM	0.304 µM and 0.298 µM	2.83 µM and 2.45 µM
COc1ccccc1CNCCCN1C(=O)c2ccc3c4c(ccc(c24)C1=O)C(=O)N(CCCNCCCCN)C3=O	1.68 µM	1.65 µM	0.694 µM	0.417 µM	0.555 µM	> 42.4 µM	2.4 µM	0.29 µM	0.4 µM	0.216 µM	0.171 µM	0.202 µM	3.31 µM	0.573 µM	1.21 µM	2.59 µM
COc1cc2c(cc1OC)C(Sc1ccc(Cl)cc1)c1c(nc(N)c(C#N)c1N)O2 (stereo not given)	3.17 µM	3.19 µM	3.46 µM	3.25 µM	2.91 µM		3.65 µM	1.65 µM	1.51 µM	1.96 µM	1.72 µM	0.564 µM		1.29 µM	1.49 µM	2.83 µM
CC(C)(C)OC(=O)CC(S(=O)(=O)c1ccccc1)S(=O)(=O)c1ccccc1	34.4 µM		2.78 µM	29.6 µM	33 µM	3.52 µM	4.48 µM	16.5 µM		1.46 µM	16 µM	13.5 µM	1.66 µM	2.32 µM	12.4 µM	25.2 µM
C=C1CCC2C(C)(CO)C(O)CCC2(C)C1C/C=C1\C(=O)OCC1O (stereo not given)	> 100 µM	66.1 µM	28.9 µM	50.6 µM	31.3 µM		74.7 µM									20.3 µM
COc1ccc(N=C2C(=O)Nc3ccc(Br)cc32)cc1	57.2 µM	69 µM	35.2 µM	37.4 µM	35.2 µM	60.6 µM	74.6 µM									
Cc1cc(=O)[nH]c2c1C(=O)c1c(C)cc(=O)n(C)c1C2=O	0.465 µM		0.253 µM	0.058 µM	0.0356 µM	0.258 µM	0.848 µM									0.0519 µM
N#CC(C#N)=C/C=C/c1ccccc1[N+](=O)[O-]	> 10 µM	> 10 µM	3.67 µM	> 10 µM	> 10 µM	> 10 µM	> 10 µM									
Nc1c([N+](=O)[O-])ncn1C1OC(CO)C(O)C1O (stereo not given)	> 100 µM		> 100 µM	> 100 µM	> 100 µM	> 100 µM	> 100 µM	> 100 µM		> 100 µM	> 100 µM	> 100 µM	> 100 µM	> 100 µM	> 100 µM	> 100 µM
COc1cc(COC(=O)N(C)[C@@H](Cc2ccccc2)C(=O)O)c([N+](=O)[O-])cc1OC	> 100 µM	> 100 µM	> 100 µM	> 100 µM	> 100 µM		> 100 µM									> 100 µM
